Results from patent publication US20090311217A1, “3-SUBSTITUTED-1H-INDOLE COMPOUNDS, THEIR USE AS MTOR KINASE AND PI3 KINASE INHIBITORS, AND THEIR SYNTHESES” (priority 2008, published 2009).

What was measured:
Assay type in all cases: biochemical
human TOR = molecular target: T1, human TOR (Homo sapiens, UniProt P42345); assay: mTOR enzyme assay (DELFIA, His6-S6K substrate); settings: read-out: mTOR Kinase Avg. IC50
T1 construct: FLAG

PI3K-alpha = PI3K-alpha (Homo sapiens, UniProt P42336); assay: PI3K-alpha fluorescence polarization assay; settings: read-out: PI3Kα Avg. IC50
PI3K-gamma = PI3K-gamma (Homo sapiens, UniProt P48736); assay: PI3K-gamma fluorescence polarization assay; settings: PI3Kγ Avg. IC50
In short: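 Each isoform (5 ng) phosphorylated 2.5 μM diC8-PI(4,5)P2 at 25 μM ATP for one hour at 25° C in the presence of inhibitor. Reactions were then stopped with EDTA, and product was detected by fluorescence polarization using a GST-GRP1 PH domain and a BODIPY-TMR-labelled IP4 tracer.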

PI3K-alpha, sequence (P42336 whole entry, species assumed): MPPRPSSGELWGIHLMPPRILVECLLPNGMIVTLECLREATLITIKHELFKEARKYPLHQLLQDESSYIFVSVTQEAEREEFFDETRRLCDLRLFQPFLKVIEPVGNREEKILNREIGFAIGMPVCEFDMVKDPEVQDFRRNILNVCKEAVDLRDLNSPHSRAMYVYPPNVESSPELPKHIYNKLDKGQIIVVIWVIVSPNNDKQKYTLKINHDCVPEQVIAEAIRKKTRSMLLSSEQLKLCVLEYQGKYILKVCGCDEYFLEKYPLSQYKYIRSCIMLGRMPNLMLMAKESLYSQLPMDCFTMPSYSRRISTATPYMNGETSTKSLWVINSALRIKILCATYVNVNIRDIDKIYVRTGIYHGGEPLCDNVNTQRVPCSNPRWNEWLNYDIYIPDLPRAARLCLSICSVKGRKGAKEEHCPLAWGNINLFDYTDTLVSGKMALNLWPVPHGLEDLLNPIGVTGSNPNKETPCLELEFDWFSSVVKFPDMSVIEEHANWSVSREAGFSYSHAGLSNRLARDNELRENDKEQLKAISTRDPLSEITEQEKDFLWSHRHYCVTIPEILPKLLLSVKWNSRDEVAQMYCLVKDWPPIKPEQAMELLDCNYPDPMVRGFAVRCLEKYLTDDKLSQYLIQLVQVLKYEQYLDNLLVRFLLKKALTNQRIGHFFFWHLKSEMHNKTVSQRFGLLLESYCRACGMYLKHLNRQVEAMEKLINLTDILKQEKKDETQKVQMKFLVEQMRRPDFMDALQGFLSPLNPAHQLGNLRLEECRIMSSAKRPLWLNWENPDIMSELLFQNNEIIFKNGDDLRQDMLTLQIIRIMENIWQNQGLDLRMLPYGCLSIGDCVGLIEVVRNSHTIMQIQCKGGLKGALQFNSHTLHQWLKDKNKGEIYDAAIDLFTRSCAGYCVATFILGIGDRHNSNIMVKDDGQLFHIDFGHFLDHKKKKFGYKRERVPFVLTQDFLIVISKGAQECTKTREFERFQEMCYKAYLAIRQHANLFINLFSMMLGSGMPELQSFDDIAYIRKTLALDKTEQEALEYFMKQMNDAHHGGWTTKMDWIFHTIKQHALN
PI3K-alpha, sequence (P27986 whole entry partner, species assumed): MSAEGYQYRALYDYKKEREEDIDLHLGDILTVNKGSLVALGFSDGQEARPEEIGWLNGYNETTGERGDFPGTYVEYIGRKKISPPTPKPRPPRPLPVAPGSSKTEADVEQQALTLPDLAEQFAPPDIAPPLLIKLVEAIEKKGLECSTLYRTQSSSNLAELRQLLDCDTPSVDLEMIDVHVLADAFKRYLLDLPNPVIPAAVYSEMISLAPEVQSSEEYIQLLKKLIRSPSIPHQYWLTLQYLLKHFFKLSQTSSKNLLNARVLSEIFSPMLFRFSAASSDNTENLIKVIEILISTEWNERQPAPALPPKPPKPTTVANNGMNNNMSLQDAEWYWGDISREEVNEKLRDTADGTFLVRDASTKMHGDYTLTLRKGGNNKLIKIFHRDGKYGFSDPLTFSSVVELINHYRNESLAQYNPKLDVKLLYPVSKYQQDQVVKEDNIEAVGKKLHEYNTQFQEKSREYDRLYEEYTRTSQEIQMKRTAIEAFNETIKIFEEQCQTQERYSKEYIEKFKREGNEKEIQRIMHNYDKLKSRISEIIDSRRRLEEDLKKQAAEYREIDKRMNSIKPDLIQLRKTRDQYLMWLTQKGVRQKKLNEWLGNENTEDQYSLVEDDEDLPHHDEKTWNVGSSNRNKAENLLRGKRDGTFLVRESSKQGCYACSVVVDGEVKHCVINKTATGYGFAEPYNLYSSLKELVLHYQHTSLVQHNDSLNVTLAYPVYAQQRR
PI3K-gamma, sequence (P48736 whole entry, species assumed, the tested form may be a part, canonical isoform): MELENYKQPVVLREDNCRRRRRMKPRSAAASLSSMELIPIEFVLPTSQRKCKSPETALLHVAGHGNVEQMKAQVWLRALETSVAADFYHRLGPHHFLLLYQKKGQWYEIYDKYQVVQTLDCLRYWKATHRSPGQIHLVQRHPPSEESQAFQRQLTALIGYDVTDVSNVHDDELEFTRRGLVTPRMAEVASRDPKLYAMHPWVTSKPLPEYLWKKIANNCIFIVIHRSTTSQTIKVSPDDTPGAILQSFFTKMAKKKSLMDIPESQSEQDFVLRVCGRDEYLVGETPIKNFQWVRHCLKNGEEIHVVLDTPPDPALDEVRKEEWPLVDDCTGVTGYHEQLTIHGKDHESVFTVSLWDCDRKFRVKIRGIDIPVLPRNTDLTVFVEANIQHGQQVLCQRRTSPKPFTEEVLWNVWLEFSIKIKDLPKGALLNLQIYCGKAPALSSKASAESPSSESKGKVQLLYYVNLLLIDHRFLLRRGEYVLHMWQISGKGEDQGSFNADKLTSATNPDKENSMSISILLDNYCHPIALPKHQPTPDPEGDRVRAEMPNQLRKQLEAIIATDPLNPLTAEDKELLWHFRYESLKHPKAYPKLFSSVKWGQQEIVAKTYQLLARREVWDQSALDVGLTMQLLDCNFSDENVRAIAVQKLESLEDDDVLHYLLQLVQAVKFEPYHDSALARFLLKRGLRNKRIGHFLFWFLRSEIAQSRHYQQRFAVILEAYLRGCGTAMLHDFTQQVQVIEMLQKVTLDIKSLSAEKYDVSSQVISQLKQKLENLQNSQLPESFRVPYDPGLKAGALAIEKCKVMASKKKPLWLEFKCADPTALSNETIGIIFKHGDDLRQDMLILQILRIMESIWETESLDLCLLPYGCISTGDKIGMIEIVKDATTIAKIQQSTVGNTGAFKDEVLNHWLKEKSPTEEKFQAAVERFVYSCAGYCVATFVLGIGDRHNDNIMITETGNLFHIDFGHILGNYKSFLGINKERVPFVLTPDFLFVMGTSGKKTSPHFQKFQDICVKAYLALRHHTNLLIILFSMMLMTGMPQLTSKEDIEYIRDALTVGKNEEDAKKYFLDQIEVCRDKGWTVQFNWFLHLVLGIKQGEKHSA

Compound	IC50 (human TOR) [nM]	IC50 (PI3K-alpha) [nM]	IC50 (PI3K-gamma) [nM]
CNc1ccc(-c2cccc3c2c(/C=C2\Oc4cc(O)cc(O)c4C2=O)cn3C)cc1 [Example 389, (2Z)-4,6-Dihydroxy-2-({1-methyl-4-[4-(methylamino)phenyl]-1H-indol-3-yl}methylene)-1-benzofuran-3(2H)-one]	11.5	1870	9860
Cn1cc(/C=C2\Oc3cc(O)cc(O)c3C2=O)c2c(-c3cccc(F)c3)cccc21 [Example 365, (2Z)-2-{[4-(3-Fluorophenyl)-1-methyl-1H-indol-3-yl]methylene}-4,6-dihydroxy-1-benzofuran-3(2H)-one]	104	437	1960
Cn1cc(/C=C2\Oc3cc(O)ccc3C2=O)c2c(-c3ccccc3)cccc21 [Example 443, (2Z)-6-Hydroxy-2-((1-methyl-4-phenyl-1H-indol-3-yl)methylene)benzofuran-3(2H)-one]	1240	> 5100	> 5100
Cn1cc(C=C2Oc3cc(O)cc(O)c3C2=O)c2cc(F)ccc21 [Example 227, 2-[(5-fluoro-1-methyl-1H-indol-3-yl)methylene]-4,6-dihydroxy-1-benzofuran-3(2H)-one]	3800	757	7510
Cn1cc(/C=C2\Oc3cc(O)cc(O)c3C2=O)c2c(-c3ccc(N4CCOCC4)nc3)cccc21 [Example 386, (2Z)-4,6-Dihydroxy-2-{[1-methyl-4-(6-morpholin-4-ylpyridin-3-yl)-1H-indol-3-yl]methylene}-1-benzofuran-3(2H)-one]	69.5	1920	5780
Cn1cc(/C=C2\Oc3cc(O)cc(O)c3C2=O)c2c(-c3cccc(C#N)c3)cccc21 [Example 367, 3-{3-[(Z)-(4,6-Dihydroxy-3-oxo-1-benzofuran-2(3H)-ylidene)methyl]-1-methyl-1H-indol-4-yl}benzonitrile]	500	1440	5420
COc1cc(F)c2[nH]c(-c3c(C)nn(C)c3C)c(/C=C3\Oc4ccc(NC(=O)Nc5ccc(C(=O)N6CCOCC6)cc5)cc4C3=O)c2c1 [Compound 731, 1-[(2Z)-2-{[7-fluoro-5-methoxy-2-(1,3,5-trimethyl-1H-pyrazol-4-yl)-1H-indol-3-yl]methylidene}-3-oxo-2,3-dihydro-1-benzofuran-5-yl]-3-[4-(morpholin-4-ylcarbonyl)phenyl]urea]	3	0.55	1.5
CNC(=O)Nc1ccc2c(c1)C(=O)/C(=C/c1c(-c3c(C)nn(C)c3C)[nH]c3ccc(OCCOC)cc13)O2 [Compound 680, 1-[(2Z)-2-{[5-(2-methoxyethoxy)-2-(1,3,5-trimethyl-1H-pyrazol-4-yl)-1H-indol-3-yl]methylidene}-3-oxo-2,3-dihydro-1-benzofuran-5-yl]-3-methylurea]	535	1920	6030
CCOC(=O)c1ccc(-c2cccc3c2c(/C=C2\Oc4cc(O)cc(O)c4C2=O)cn3C)cc1 [Example 382, Ethyl 4-{3-[(Z)-(4,6-Dihydroxy-3-oxo-1-benzofuran-2(3H)-ylidene)methyl]-1-methyl-1H-indol-4-yl}benzoate]	535	2920	4680
CN(C)Cc1ccc(-c2ccc(-c3cccc4c3c(/C=C3\Oc5cc(O)cc(O)c5C3=O)cn4C)cc2)cc1 [Example 301, (2Z)-2-[(4-{4′-[(Dimethylamino)methyl]biphenyl-4-yl}-1-methyl-1H-indol-3-yl)methylene]-4,6-dihydroxy-1-benzofuran-3(2H)-one]	125	1230	2310
CNC(=O)Nc1ccc2c(c1)C(=O)/C(=C/c1c(C(=O)NC(C)(C)CO)[nH]c3ccc(OC)cc13)O2 [Compound 622, N-(2-hydroxy-1,1-dimethylethyl)-5-methoxy-3-[(Z)-{5-[(methylcarbamoyl)amino]-3-oxo-1-benzofuran-2(3H)-ylidene}methyl]-1H-indole-2-carboxamide]	96	8	39
CNC(=O)Nc1ccc2c(c1)C(=O)/C(=C/c1c(C#N)n(CCN3CCN(C)CC3)c3ccc(OC)cc13)O2 [Compound 628, 1-[(2Z)-2-({2-cyano-5-methoxy-1-[2-(4-methylpiperazin-1-yl)ethyl]-1H-indol-3-yl}methylidene)-3-oxo-2,3-dihydro-1-benzofuran-5-yl]-3-methylurea]	150	11	2730
O=C1C(=Cc2c(-c3ccc(O)cc3)[nH]c3ccccc23)Oc2cc(O)cc(O)c21 [Example 206, 4,6-dihydroxy-2-{[2-(4-hydroxyphenyl)-1H-indol-3-yl]methylene}-1-benzofuran-3(2H)-one]	65	573	1050

Continued, values first:

IC50 (human TOR) [nM]	IC50 (PI3K-alpha) [nM]	IC50 (PI3K-gamma) [nM]	Compound
2200	49.5	550	COc1ccc2c(c1)c(/C=C1\Oc3cc(O)ccc3C1=O)c(C)n2CCN1CCCC1C (stereo not drawn) [Example 453, (2Z)-6-Hydroxy-2-({5-methoxy-2-methyl-1-[2-(2-methylpyrrolidin-1-yl)ethyl]-1H-indol-3-yl}methylene)-1-benzofuran-3(2H)-one]
> 20000	7820	5610	COc1ccc2c(c1)c(/C=C1\Oc3cc(Br)ccc3C1=O)cn2CCCN(C)C [Example 413, (2Z)-6-bromo-2-({1-[3-(dimethylamino)propyl]-5-methoxy-1H-indol-3-yl}methylene)-1-benzofuran-3(2H)-one]
12500	19.5	1060	COc1ccc2c(c1)c(/C=C1\Oc3cc(O)ccc3C1=O)c(C)n2CCCN1CCCC1C (stereo not drawn) [Example 461, (2Z)-6-Hydroxy-2-({5-methoxy-2-methyl-1-[3-(2-methylpyrrolidin-1-yl)propyl]-1H-indol-3-yl}methylene)-1-benzofuran-3(2H)-one]
> 800	306	3440	COc1ccc2c(c1)c(/C=C1\Oc3c(ccc(O)c3Cl)C1=O)c(C)n2CCCN(C)C [Example 361, (2Z)-7-Chloro-2-({1-[3-(dimethylamino)propyl]-5-methoxy-2-methyl-1H-indol-3-yl}methylene)-6-hydroxy-1-benzofuran-3(2H)-one]
2	1.25	5	CNC(=O)Nc1ccc2c(c1)C(=O)/C(=C/c1c(-c3cn(C)nc3C)[nH]c3ccc(OC)cc13)O2 [Compound 722, 1-[(2Z)-2-{[2-(1,3-dimethyl-1H-pyrazol-4-yl)-5-methoxy-1H-indol-3-yl]methylidene}-3-oxo-2,3-dihydro-1-benzofuran-5-yl]-3-methylurea]
88	1.5	7.5	CCn1c(C)c(/C=C2\Oc3ccc(NC(=O)Nc4ccc(OCCCN(C)C)cc4)cc3C2=O)c2cc(OC)ccc21 [Compound 654, 1-{4-[3-(dimethylamino)propoxy]phenyl}-3-{(2Z)-2-[(1-ethyl-5-methoxy-2-methyl-1H-indol-3-yl)methylene]-3-oxo-2,3-dihydro-1-benzofuran-5-yl}urea]
> 20000	74	5050	COc1ccc2c(c1)c(/C=C1\Oc3c(ccc(O)c3F)C1=O)c(C)n2CCN1CCN(C)CC1 [Example 457, (2Z)-7-Fluoro-6-hydroxy-2-({5-methoxy-2-methyl-1-[2-(4-methylpiperazin-1-yl)ethyl]-1H-indol-3-yl}methylene)-1-benzofuran-3(2H)-one]
4.2	3	26.5	COc1ccc2c(c1)c(/C=C1\Oc3cc(O)cc(O)c3C1=O)c(C1CC1)n2CCN1CCC(O)CC1 [Example 315, (2Z)-2-({2-Cyclopropyl-1-[2-(4-hydroxypiperidin-1-yl)ethyl]-5-methoxy-1H-indol-3-yl}methylene)-4,6-dihydroxy-1-benzofuran-3(2H)-one]
110	0.7	5	CCn1c(C)c(/C=C2\Oc3ccc(NC(=O)Nc4ccc(C(=O)N5CCOCC5)cc4)cc3C2=O)c2cc(OC)ccc21 [Compound 686, 1-{(2Z)-2-[(1-ethyl-5-methoxy-2-methyl-1H-indol-3-yl)methylidene]-3-oxo-2,3-dihydro-1-benzofuran-5-yl}-3-[4-(morpholin-4-ylcarbonyl)phenyl]urea]
> 20000	> 10000	> 10000	COc1ccc2[nH]cc(C=C3Oc4cc(S(C)(=O)=O)ccc4C3=O)c2c1 [Example 436, 2-[(5-Methoxy-1H-indol-3-yl)methylene]-6-(methylsulfonyl)-1-benzofuran-3(2H)-one]
1590	202	1220	COc1ccc2c(c1)c(C=C1Oc3c(ccc(O)c3O)C1=O)c(C)n2C [Example 90, 6,7-dihydroxy-2-[(5-methoxy-1,2-dimethyl-1H-indol-3-yl)methylene]-1-benzofuran-3(2H)-one]
425	50.5	1790	COc1ccc2c(c1)c(/C=C1\Oc3cc(O)cc(Cl)c3C1=O)c(C)n2CCN1CCN(C)CC1 [Example 467, (2Z)-4-Chloro-6-hydroxy-2-({5-methoxy-2-methyl-1-[2-(4-methylpiperazin-1-yl)ethyl]-1H-indol-3-yl}methylene)-1-benzofuran-3(2H)-one]
> 20000	5040	8660	CN1CCN(CCn2cc(/C=C3\Oc4cc(O)cc(O)c4C3=O)c3c(-c4ccc(C(N)=O)cc4)cccc32)CC1 [Example 425, 4-{3-[(Z)-(4,6-Dihydroxy-3-oxo-1-benzofuran-2(3H)-ylidene)methyl]-1-[2-(4-methylpiperazin-1-yl)ethyl]-1H-indol-4-yl}benzamide]
